Key:
[1] = Unbound brain-to-plasma concentration ratio in non-human primates administered orally and measured after 120 mins by LC/MS/MS analysis; type: ADME; conditions: po, read-out: K(p,uu,brain)
[2] = system: human MDR1 (P-gp); experiment: Efflux ratio of apparent permeability across basolateral to apical side over apical to basolateral side in human MDR1-transfected dog MDCKII-MDR1 cells at 0.1 to 1 uM measured after 3 hrs by LC/MS/MS analysis; type: ADME, cell-based, Canis lupus familiaris; conditions: MDCK-MDR1, dose 0.1-1 µM
[3] = Unbound brain-to-plasma concentration ratio in rat at 2.5 uM incubated for 4 hrs by equilibrium dialysis method; type: ADME, cell-free; conditions: brain and plasma (unbound), read-out: K(p,uu,brain)
[4] = Intrinsic clearance in Wistar Han rat at 0.1 mg/kg, iv by LC-MS/MS analysis; type: ADME, organism-based; conditions: in vivo
[5] = Intrinsic clearance in rat hepatocytes at 0.3 uM incubated for 90 mins by LC/MS/MS analysis; type: ADME, cell-based, Hepatocyte; conditions: read-out: CLH
[6] = Intrinsic clearance in human hepatocytes at 0.3 uM incubated for 90 mins by LC/MS/MS analysis; type: ADME, cell-based, Hepatocyte; conditions: read-out: CLH
[7] = target: Leucine-rich repeat serine/threonine-protein kinase 2 (Homo sapiens, UniProt Q5S007, G2019S); experiment: Inhibition of recombinant N-terminal GST-fused LRRK2 […] mutant (970 to 2527 residues) (unknown origin) preincubated with enzyme for 15 mins followed by fluorescein-labeled LRRKtide peptide substrate and ATP addition for 90 mins by TR-FRET assay
[8] = system: rat Mdr1a (P-gp); experiment: Efflux ratio of apparent permeability across basolateral to apical side over apical to basolateral side in rat Mdr1a-transfected pig LLC-PK1 cells at 0.1 to 1 uM measured after 3 hrs by LC/MS/MS analysis; type: ADME, cell-based, Sus scrofa; conditions: dose 0.1-1 µM
[9] = system: rat Mdr1a (P-gp); experiment: Apparent permeability from apical to basolateral side in rat Mdr1a-transfected pig LLC-PK1 cells at 0.1 to 1 uM measured after 3 hrs by LC/MS/MS analysis; type: ADME, cell-based, Sus scrofa; conditions: dose 0.1-1 µM
[10] = system: Leucine-rich repeat serine/threonine-protein kinase 2 (Homo sapiens), Q5S007 [G2019S]; experiment: Inhibition of LRRK2 […] mutant expressed in human SH-SY5Y cells assessed as unbound concentration required for inhibition of phosphorylation of LRRK2 at Ser935 residue incubated for 90 mins by MSD assay; type: cell-based
[11] = MRT in Wistar Han rat at 0.1 mg/kg, iv by LC-MS/MS analysis; type: ADME, organism-based; conditions: in vivo
[12] = Total plasma clearance in Wistar Han rat at 0.1 mg/kg, iv by LC-MS/MS analysis; type: ADME, organism-based
[13] = MRT in Wistar Han rat at 2 mg/kg, iv by LC-MS/MS analysis; type: ADME, organism-based; conditions: in vivo
[14] = Oral bioavailability in Wistar Han rat at 10 mg/kg by LC-MS/MS analysis; type: ADME, organism-based; conditions: in vivo
[15] = Total plasma clearance in Wistar Han rat at 2 mg/kg, iv by LC-MS/MS analysis; type: ADME, organism-based
[16] = Intrinsic clearance in Wistar Han rat at 2 mg/kg, iv by LC-MS/MS analysis; type: ADME, organism-based; conditions: in vivo
[17] = target: Voltage-gated inwardly rectifying potassium channel KCNH2 (Homo sapiens, UniProt Q12809); experiment: Inhibition of human ERG by voltage clamp assay; type: toxicity
[18] = system: mouse Bcrp; experiment: Efflux ratio of apparent permeability across basolateral to apical over apical to basolateral side in mouse Bcrp-transfected dog MDCK-II cells at 0.1 to 1 uM measured after 3 hrs by LC/MS/MS analysis; type: ADME, cell-based, Canis lupus familiaris; conditions: dose 0.1-1 µM
[19] = Intrinsic clearance in dog hepatocytes at 0.3 uM incubated for 90 mins by LC/MS/MS analysis; type: ADME, cell-based, Canis lupus familiaris, Hepatocyte; conditions: read-out: CLH

Sequence of Leucine-rich repeat serine/threonine-protein kinase 2 (Homo sapiens), Q5S007 [G2019S] (Q5S007 whole entry G2019S): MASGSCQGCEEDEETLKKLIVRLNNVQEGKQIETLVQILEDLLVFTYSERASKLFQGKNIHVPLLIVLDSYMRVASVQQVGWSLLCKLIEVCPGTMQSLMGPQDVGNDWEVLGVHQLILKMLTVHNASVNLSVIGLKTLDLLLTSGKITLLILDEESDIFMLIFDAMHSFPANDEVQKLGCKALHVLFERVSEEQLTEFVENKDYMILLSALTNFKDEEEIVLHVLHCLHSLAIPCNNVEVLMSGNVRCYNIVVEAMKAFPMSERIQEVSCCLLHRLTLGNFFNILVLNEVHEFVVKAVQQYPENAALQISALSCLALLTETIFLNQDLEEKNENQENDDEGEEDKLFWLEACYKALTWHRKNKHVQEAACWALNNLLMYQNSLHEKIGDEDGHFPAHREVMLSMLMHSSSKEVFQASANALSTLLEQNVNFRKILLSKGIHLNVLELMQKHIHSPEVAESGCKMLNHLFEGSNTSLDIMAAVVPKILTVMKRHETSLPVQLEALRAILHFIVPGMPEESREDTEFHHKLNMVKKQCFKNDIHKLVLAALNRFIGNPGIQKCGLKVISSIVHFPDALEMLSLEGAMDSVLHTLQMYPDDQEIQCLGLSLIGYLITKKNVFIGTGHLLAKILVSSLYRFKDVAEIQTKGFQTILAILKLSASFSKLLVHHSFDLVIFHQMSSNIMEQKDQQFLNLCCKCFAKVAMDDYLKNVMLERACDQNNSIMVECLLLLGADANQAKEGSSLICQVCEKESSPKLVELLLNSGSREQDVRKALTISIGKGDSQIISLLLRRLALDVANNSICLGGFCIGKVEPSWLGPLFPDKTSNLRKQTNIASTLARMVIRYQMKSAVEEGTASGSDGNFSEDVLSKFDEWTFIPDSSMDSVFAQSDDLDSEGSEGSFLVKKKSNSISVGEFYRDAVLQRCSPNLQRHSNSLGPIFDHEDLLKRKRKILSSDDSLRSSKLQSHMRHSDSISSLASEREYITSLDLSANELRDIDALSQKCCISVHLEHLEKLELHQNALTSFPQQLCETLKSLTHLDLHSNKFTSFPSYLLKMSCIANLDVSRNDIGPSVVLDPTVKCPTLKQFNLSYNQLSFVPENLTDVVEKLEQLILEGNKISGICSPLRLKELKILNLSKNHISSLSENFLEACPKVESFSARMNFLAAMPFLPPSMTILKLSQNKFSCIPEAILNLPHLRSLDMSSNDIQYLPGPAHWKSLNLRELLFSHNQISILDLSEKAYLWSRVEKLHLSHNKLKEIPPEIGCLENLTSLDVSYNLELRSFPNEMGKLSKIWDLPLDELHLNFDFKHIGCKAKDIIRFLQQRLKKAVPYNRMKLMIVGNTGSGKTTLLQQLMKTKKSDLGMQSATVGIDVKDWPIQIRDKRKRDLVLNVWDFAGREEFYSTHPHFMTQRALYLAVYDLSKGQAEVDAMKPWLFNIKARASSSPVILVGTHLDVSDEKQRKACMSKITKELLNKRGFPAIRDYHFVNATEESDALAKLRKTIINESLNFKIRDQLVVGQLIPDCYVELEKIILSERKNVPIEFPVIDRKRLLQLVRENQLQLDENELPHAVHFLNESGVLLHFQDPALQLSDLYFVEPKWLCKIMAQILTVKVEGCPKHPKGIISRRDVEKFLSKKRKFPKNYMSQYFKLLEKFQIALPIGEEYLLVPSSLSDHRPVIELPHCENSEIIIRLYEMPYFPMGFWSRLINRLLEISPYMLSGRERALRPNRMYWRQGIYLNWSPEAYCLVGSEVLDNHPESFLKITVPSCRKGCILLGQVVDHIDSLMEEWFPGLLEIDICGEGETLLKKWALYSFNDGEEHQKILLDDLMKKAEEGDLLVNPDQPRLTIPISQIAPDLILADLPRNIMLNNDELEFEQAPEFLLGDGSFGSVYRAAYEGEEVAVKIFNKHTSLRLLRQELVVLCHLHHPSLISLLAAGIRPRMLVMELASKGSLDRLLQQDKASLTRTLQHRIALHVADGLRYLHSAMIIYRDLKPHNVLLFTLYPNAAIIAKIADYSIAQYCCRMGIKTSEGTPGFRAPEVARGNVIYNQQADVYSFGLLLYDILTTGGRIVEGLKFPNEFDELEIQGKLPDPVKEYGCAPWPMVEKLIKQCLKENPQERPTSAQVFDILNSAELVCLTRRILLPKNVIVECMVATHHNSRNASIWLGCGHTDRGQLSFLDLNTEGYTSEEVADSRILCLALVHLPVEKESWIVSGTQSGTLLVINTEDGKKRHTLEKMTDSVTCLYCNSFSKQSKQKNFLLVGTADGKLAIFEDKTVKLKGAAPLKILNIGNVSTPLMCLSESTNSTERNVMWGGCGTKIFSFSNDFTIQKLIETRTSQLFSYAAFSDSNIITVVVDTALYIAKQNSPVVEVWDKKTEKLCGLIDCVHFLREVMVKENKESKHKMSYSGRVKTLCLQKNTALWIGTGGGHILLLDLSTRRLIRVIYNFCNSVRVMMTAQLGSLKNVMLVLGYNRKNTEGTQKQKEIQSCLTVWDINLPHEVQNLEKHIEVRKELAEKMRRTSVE
Sequence of Leucine-rich repeat serine/threonine-protein kinase 2 (Q5S007 whole entry G2019S, the tested form may be a part): as the sequence (Q5S007 whole entry G2019S) above
Sequence of Voltage-gated inwardly rectifying potassium channel KCNH2 (Q12809 whole entry): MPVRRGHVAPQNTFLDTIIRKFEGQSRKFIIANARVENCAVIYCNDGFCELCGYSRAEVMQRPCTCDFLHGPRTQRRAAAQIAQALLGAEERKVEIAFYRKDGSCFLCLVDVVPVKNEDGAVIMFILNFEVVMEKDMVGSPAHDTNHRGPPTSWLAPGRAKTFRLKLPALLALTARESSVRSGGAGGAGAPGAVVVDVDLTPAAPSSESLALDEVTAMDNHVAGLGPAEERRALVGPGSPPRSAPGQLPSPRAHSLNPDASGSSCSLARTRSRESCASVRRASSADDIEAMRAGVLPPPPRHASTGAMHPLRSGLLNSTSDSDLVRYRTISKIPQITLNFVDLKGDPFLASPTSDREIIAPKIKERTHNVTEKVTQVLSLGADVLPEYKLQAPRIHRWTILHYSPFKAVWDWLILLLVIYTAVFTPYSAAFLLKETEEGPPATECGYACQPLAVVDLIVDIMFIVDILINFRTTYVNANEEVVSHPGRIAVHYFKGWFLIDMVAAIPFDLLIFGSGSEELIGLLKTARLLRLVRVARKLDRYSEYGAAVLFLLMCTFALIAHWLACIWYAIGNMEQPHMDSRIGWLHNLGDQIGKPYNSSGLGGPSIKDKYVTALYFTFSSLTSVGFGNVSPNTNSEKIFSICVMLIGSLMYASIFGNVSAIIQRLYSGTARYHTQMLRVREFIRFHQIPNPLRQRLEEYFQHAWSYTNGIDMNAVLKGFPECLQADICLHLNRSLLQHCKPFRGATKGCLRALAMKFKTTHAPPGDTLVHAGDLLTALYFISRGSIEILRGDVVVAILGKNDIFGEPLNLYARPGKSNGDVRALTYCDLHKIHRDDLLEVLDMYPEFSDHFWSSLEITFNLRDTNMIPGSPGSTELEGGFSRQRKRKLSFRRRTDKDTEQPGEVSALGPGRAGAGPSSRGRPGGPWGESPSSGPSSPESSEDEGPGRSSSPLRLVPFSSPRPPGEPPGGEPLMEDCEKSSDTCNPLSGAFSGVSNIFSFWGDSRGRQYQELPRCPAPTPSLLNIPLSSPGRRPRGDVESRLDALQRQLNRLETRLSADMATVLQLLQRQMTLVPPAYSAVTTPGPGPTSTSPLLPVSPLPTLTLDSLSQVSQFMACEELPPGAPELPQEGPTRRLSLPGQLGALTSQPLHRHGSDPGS

| SMILES | Kp uu at 4 h, 2.5 µM [3] | CLint scaled at 0.3 µM [5] [mL/min/kg] | CLint scaled at 0.3 µM [6] [mL/min/kg] | IC50 [7] [nM] | efflux ratio at 3 h, up to 1 µM [8] | Papp A→B at 3 h, up to 1 µM [9] [×10⁻⁶ cm/s] | fIC50 [10] [nM] | other results |
| --- | --- | --- | --- | --- | --- | --- | --- | --- |
| CCNc1nc(Nc2cc(F)c(C(=O)N3CCOCC3)cc2OC)ncc1C(F)(F)F | 0.5 |  |  |  |  |  |  | Kp uu at 2 h [1]: 0.6; efflux ratio at 3 h, up to 1 µM [2]: 0.9 |
| CNc1nc(Nc2cn(C(C)(C)C#N)nc2C)ncc1C(F)(F)F [DNL-201] | 0.6 |  |  |  |  |  |  | Kp uu at 2 h [1]: 0.46; efflux ratio at 3 h, up to 1 µM [2]: 0.8 |
| FC(F)Cn1ncc(Nc2ncc3cc(Cl)c(C4CCN(C5COC5)CC4F)cc3n2)c1Cl (stereo not drawn) |  | 336 | 212 | < 0.6 | 1 | 33 | 7.4 | CL [4]: 755 mL/min/kg; MRT [11]: 1.8 h; clearance [12]: 18 mL/min/kg |
| N#CC1(c2ccc3cnc(Nc4cnn(C5CCOCC5)c4Cl)nc3c2)CC12CC2 (stereo not drawn) |  | 1960 | 405 | < 0.08 | 0.9 | 31 | 1.7 |  |
| Cc1c(Nc2ncc3ccc(C4CCN(C5COC5)CC4)cc3n2)cnn1C1CCOCC1 |  |  |  | 6800 |  |  |  |  |
| Cc1c(Nc2ncc3ccc(C4(C#N)CC4)cc3n2)cnn1C1CCOCC1 |  |  |  | 0.7 | 6.4 | 34 | 19 |  |
| c1cc(C2CC2)c2nc(Nc3cnn(C4CCOCC4)c3)ncc2c1 |  |  |  | 15 |  |  | 90 |  |
| Cc1c(Nc2ncc3ccc(-c4ccn[nH]4)cc3n2)cnn1C1CCOCC1 |  |  |  | 1.7 |  |  | 114 |  |
| FC1CN(C2COC2)CCC1c1cc2nc(Nc3cnn(C4CC4)c3Cl)ncc2cc1Cl (stereo not drawn) | 0.5 | 329 | 175 | < 0.6 | 1.3 | 32 | 4.3 | MRT [13]: 3.8 h; bioavailability [14]: 54%; clearance [15]: 18 mL/min/kg; CL [16]: 1200 mL/min/kg; IC50 [17]: 14 µM; efflux ratio at 3 h, up to 1 µM [18]: 1.3; CLint scaled at 0.3 µM [19]: 1300 mL/min/kg |
| Clc1cc2cnc(Nc3cnn(C4CC4)c3Cl)nc2cc1N1CCN(C2COC2)CC1 |  | 168 | 63 |  | 0.9 | 33 | 71 | CL [4]: 1800 mL/min/kg; IC50 [17]: 24 µM; MRT [11]: 1.1 h; clearance [12]: 42 mL/min/kg |

Source: ChEMBL document CHEMBL5042510, “Structure-Guided Discovery of Aminoquinazolines as Brain-Penetrant and Selective LRRK2 Inhibitors” (J Med Chem, 2022)
